Results as given in patent US7101664B2, “Bioactive oligopeptides” (Polymun Scientific Immunbiologische Forschung GmbH, priority 1999, dated 2006).
Where no end group is shown, it is not given here. [ ]: non-standard residue; d: D form. βAla = NCCC(=O)O

Tested on: Mouse hybridoma CAU 96
Test: Batch T-flask culture of hybridoma with oligopeptide supplements (Example 2)
Assay type: cell-based
Text: Cells: Mouse hybridoma CAU 96 producing monoclonal lgG2a
Starting viable cell density is 310000 (3.1*10^5) cells per ml.

[1] = Table 6, Day 6, supplement 0.1% w/v
[2] = Table 6, Day 6, supplement 0.2% w/v
[3] = Table 7, Day 6, supplement 0.1% w/v
[4] = Table 7, Day 6, supplement 0.2% w/v
[5] = Table 3, Day 7, supplement 0.2% w/v
[6] = Table 7, Day 6, supplement 0.05% w/v
[7] = Table 5, Day 6, supplement 0.05% w/v
[8] = Table 5, Day 6, supplement 0.1% w/v
[9] = Table 5, Day 6, supplement 0.2% w/v
[10] = Table 5, Day 6, supplement 0.3% w/v

Work on Gly-Asp-Gly yielded a Monoclonal antibody [1] of 98 mg/L, a Viability [1] of 64% and a Viable cell number [1] of 1340 cells/μL. For the same substance, the Monoclonal antibody [2] was 92 mg/L, the Viability [2] was 70% and the Viable cell number [2] was 1420 cells/μL.

Gly-Gly-Glu-Ala (GGEA) was tested, and the Monoclonal antibody [3] was 100 mg/L, the Viability [3] was 82% and the Viable cell number [3] was 1350 cells/μL. For the same substance, the Monoclonal antibody [4] was 113 mg/L, the Viability [4] was 77% and the Viable cell number [4] was 1280 cells/μL.

Gly-Gly-Gly-Gly-Gly [Pentaglycine] was tested, and the “Viable cell number % of control” value was 190 % of control, the Monoclonal antibody [5] was 165 mg/L and the Viability [5] was 82%. The Viable cell number [5] was 2020 cells/μL.

Gly-Gly-Gly-Gly-Gly-Gly [Hexaglycine] was tested, and the “Viable cell number % of control” value was 183 % of control, the Monoclonal antibody [5] was 160 mg/L and the Viability [5] was 79%. It also gave a Viable cell number [5] of 1940 cells/μL.

Gly-Gly-His-Gly (GGHG) gave a Monoclonal antibody [3] of 93 mg/L, a Viability [3] of 77% and a Viable cell number [3] of 1360 cells/μL. The Monoclonal antibody [4] was 84 mg/L, the Viability [4] was 71% and the Viable cell number [4] was 1180 cells/μL.

With Gly-Gly-Lys-Ala (GGKA) the Monoclonal antibody [3] was 118 mg/L, the Viability [3] was 79% and the Viable cell number [3] was 1310 cells/μL. For the same substance, the Monoclonal antibody [4] was 134 mg/L, the Viability [4] was 78% and the Viable cell number [4] was 1290 cells/μL.

In the case of Gly-His-Gly, the Monoclonal antibody [1] is reported as 121 mg/L, the Viability [1] is reported as 65% and the Viable cell number [1] is reported as 1180 cells/μL. For the same substance, the Monoclonal antibody [2] was 144 mg/L, the Viability [2] was 66% and the Viable cell number [2] was 900 cells/μL.

In the case of Gly-Lys-Gly, the Monoclonal antibody [1] is reported as 128 mg/L, the Viability [1] is reported as 67% and the Viable cell number [1] is reported as 1250 cells/μL. For the same substance, the Monoclonal antibody [2] was 154 mg/L, the Viability [2] was 62% and the Viable cell number [2] was 1100 cells/μL.

For Gly-βAla-Gly-Gly (G[βAla]GG), the Monoclonal antibody [6] was 121 mg/L, the Viability [6] was 68% and the Viable cell number [6] was 1100 cells/μL. For the same substance, the Monoclonal antibody [3] was 129 mg/L, the Viability [3] was 65% and the Viable cell number [3] was 1150 cells/μL. It also gave a Monoclonal antibody [4] of 150 mg/L, a Viability [4] of 72% and a Viable cell number [4] of 1270 cells/μL.

Ser-Ser-Ser [Triserine] showed a Monoclonal antibody [7] of 109 mg/L, a Viability [7] of 61% and a Viable cell number [7] of 1200 cells/μL. It also gave a Monoclonal antibody [8] of 112 mg/L, a Viability [8] of 65% and a Viable cell number [8] of 1340 cells/μL. It also gave a Monoclonal antibody [9] of 126 mg/L, a Viability [9] of 70% and a Viable cell number [9] of 1550 cells/μL. It also gave a Monoclonal antibody [10] of 142 mg/L, a Viability [10] of 78% and a Viable cell number [10] of 1610 cells/μL.

Thr-Thr-Thr [Trithreonine] was tested, and the Monoclonal antibody [7] was 122 mg/L, the Viability [7] was 67% and the Viable cell number [7] was 1310 cells/μL. The Monoclonal antibody [8] was 130 mg/L, the Viability [8] was 70% and the Viable cell number [8] was 1370 cells/μL. It also gave a Monoclonal antibody [9] of 152 mg/L, a Viability [9] of 73% and a Viable cell number [9] of 1450 cells/μL.
